Laboratory results reported in patent publication US8952024B2, “Herbicidal pyrimidone derivatives” (E I du Pont de Nemours and Company, priority 2009, dated 2015).

Experiments:
Format in all cases: in vivo
[1] = test system: barnyardgrass (Echinochloa crus-galli); assay: Test A pre-/postemergence plant response
Method in brief: (§1)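 Plants grown from seed in a loam soil and sand mix received test compounds both as a preemergence soil spray and, at the same time, as a postemergence spray at the one- to two-leaf stage. Injury was judged visually against untreated controls roughly ten days later, 0 meaning no effect and 100 complete control.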

corn (Zea mays) = assay: Test A pre-/postemergence plant response
Method in brief: as §1

[2] = test system: giant foxtail (Setaria faberii); assay: Test A pre-/postemergence plant response
Method in brief: as §1

[3] = test system: large crabgrass (Digitaria sanguinalis); assay: Test A pre-/postemergence plant response
Method in brief: as §1

[4] = test system: morningglory (Ipomoea spp.); assay: Test A pre-/postemergence plant response
Method in brief: as §1

[5] = test system: pigweed (Amaranthus retroflexus); assay: Test A pre-/postemergence plant response
Method in brief: as §1

[6] = test system: velvetleaf (Abutilon theophrasti); assay: Test A pre-/postemergence plant response
Method in brief: as §1

[7] = test system: wheat (Triticum aestivum); assay: Test A pre-/postemergence plant response
Method in brief: as §1

[8] = test system: barnyardgrass (Echinochloa crus-galli); assay: Test B flooded paddy test; conditions: for Plant response rating, Flood, Barnyardgrass: 250 g ai/ha, flooded paddy test, visual rating on 0 to 100 scale (0 no effect, 100 complete control) after 13 to 15 days; for Plant response rating, Barnyardgrass: Flood (flooded paddy test), 13 to 15 days; for Barnyardgrass plant response rating: Flood, 31 g ai/ha, scale 0 to 100 (0 no effect, 100 complete control)
Method in brief: (§2)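 Ratings are visual, 0–100 (100 = complete control), taken versus untreated controls 13 to 15 days after treatment in the greenhouse. Compound went straight into paddy water held 3 cm above soil, applied to 2-leaf-stage plants of four species.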

[9] = test system: ducksalad (Heteranthera limosa); assay: Test B flooded paddy test; conditions: for Plant response rating, Flood, Ducksalad: 250 g ai/ha, flooded paddy test, visual rating on 0 to 100 scale (0 no effect, 100 complete control) after 13 to 15 days; for Plant response rating, Ducksalad: Flood (flooded paddy test), 13 to 15 days; for Ducksalad plant response rating: Flood, 31 g ai/ha, scale 0 to 100 (0 no effect, 100 complete control)
Method in brief: as §2

rice (Oryza sativa) = assay: Test B flooded paddy test; conditions: for Plant response rating, Flood, Rice: 250 g ai/ha, flooded paddy test, visual rating on 0 to 100 scale (0 no effect, 100 complete control) after 13 to 15 days; for Plant response rating, Rice: Flood (flooded paddy test), 13 to 15 days; for Rice plant response rating: Flood, 31 g ai/ha, scale 0 to 100 (0 no effect, 100 complete control)
Method in brief: as §2

[10] = test system: umbrella sedge (Cyperus difformis); assay: Test B flooded paddy test; conditions: for Plant response rating, Flood, Sedge, Umbrella: 250 g ai/ha, flooded paddy test, visual rating on 0 to 100 scale (0 no effect, 100 complete control) after 13 to 15 days; for Plant response rating, Sedge, Umbrella: Flood (flooded paddy test), 13 to 15 days; for Sedge, Umbrella plant response rating: Flood, 31 g ai/ha, scale 0 to 100 (0 no effect, 100 complete control)
Method in brief: as §2

[11] = Postemergence, 125 g ai/ha, 0 to 100 scale where 0 is no effect and 100 is complete control
[12] = Postemergence, 500 g ai/ha, visual injury, 0 to 100 scale (0 no effect, 100 complete control), approx. ten days
[13] = Preemergence, 125 g ai/ha, 0 to 100 scale, 0 = no effect, 100 = complete control
[14] = Preemergence, 500 g ai/ha, 0 to 100 scale, 0 = no effect, 100 = complete control
[15] = 62 g ai/ha, scale of 0 to 100 where 0 is no effect and 100 is complete control
[16] = 125 g ai/ha, scale 0 to 100, 0 is no effect, 100 is complete control
[17] = Postemergence, 500 g ai/ha, 0 to 100 scale, 0 = no effect, 100 = complete control, approx. ten days
[18] = Preemergence, 500 g ai/ha, visual injury, 0 to 100 scale (0 no effect, 100 complete control), approx. ten days

Cc1ccc(F)cc1-n1c(-c2cc(F)cc(F)c2)ncc(C(=O)C2=C(O)CCCC2=O)c1=O [Compound 183]
Plant response rating, Barnyardgrass [1, 11]: 60
Barnyardgrass plant response rating [1, 12]: 90
Plant response rating, Barnyardgrass [1, 13]: 20
Plant response rating, Barnyardgrass [1, 14]: 100
Plant response rating, Corn (corn (Zea mays); [11]): 10
Corn plant response rating (corn (Zea mays); [12]): 80
Plant response rating, Corn (corn (Zea mays); [13]): 0
Plant response rating, Corn (corn (Zea mays); [14]): 0
Plant response rating, Foxtail, Giant [2, 11]: 80
Foxtail, Giant plant response rating [2, 12]: 100
Plant response rating, Foxtail, Giant [2, 13]: 60
Plant response rating, Foxtail, Giant [2, 14]: 90
Plant response rating, Crabgrass, Large [3, 11]: 80
Crabgrass, Large plant response rating [3, 12]: 100
Plant response rating, Crabgrass, Large [3, 13]: 90
Plant response rating, Crabgrass, Large [3, 14]: 100
Plant response rating, Morningglory [4, 11]: 40
Morningglory plant response rating [4, 12]: 70
Plant response rating, Morningglory [4, 13]: 20
Plant response rating, Morningglory [4, 14]: 50
Plant response rating, Pigweed [5, 11]: 100
Pigweed plant response rating [5, 12]: 100
Plant response rating, Pigweed [5, 13]: 90
Plant response rating, Pigweed [5, 14]: 100
Plant response rating, Velvetleaf [6, 11]: 100
Velvetleaf plant response rating [6, 12]: 100
Plant response rating, Velvetleaf [6, 13]: 100
Plant response rating, Velvetleaf [6, 14]: 100
Plant response rating, Wheat [7, 11]: 50
Wheat plant response rating [7, 12]: 80
Plant response rating, Wheat [7, 13]: 0
Plant response rating, Wheat [7, 14]: 50
Plant response rating, Flood, Barnyardgrass [8]: 35
Plant response rating, Barnyardgrass [8, 15]: 0
Plant response rating, Barnyardgrass [8, 16]: 0
Barnyardgrass plant response rating [8]: 0
Plant response rating, Flood, Ducksalad [9]: 95
Plant response rating, Ducksalad [9, 15]: 65
Plant response rating, Ducksalad [9, 16]: 80
Ducksalad plant response rating [9]: 30
Plant response rating, Flood, Rice (rice (Oryza sativa)): 0
Plant response rating, Rice (rice (Oryza sativa); [15]): 0
Plant response rating, Rice (rice (Oryza sativa); [16]): 0
Rice plant response rating (rice (Oryza sativa)): 0
Plant response rating, Flood, Sedge, Umbrella [10]: 90
Plant response rating, Sedge, Umbrella [10, 15]: 50
Plant response rating, Sedge, Umbrella [10, 16]: 65
Sedge, Umbrella plant response rating [10]: 0

CCCn1c(-c2ccc(Br)cc2)ncc(C(=O)C2=C(O)CCCC2=O)c1=O [Compound 134]
Plant response rating, Barnyardgrass [1, 11]: 10
Plant response rating, Barnyardgrass [1, 17]: 60
Plant response rating, Barnyardgrass [1, 13]: 0
Plant response rating, Barnyardgrass [1, 18]: 10
Plant response rating, Corn (corn (Zea mays); [11]): 0
Plant response rating, Corn (corn (Zea mays); [17]): 20
Plant response rating, Corn (corn (Zea mays); [13]): 0
Plant response rating, Corn (corn (Zea mays); [18]): 0
Plant response rating, Foxtail, Giant [2, 11]: 40
Plant response rating, Foxtail, Giant [2, 17]: 70
Plant response rating, Foxtail, Giant [2, 13]: 0
Plant response rating, Foxtail, Giant [2, 18]: 30
Plant response rating, Crabgrass, Large [3, 11]: 50
Plant response rating, Crabgrass, Large [3, 17]: 80
Plant response rating, Crabgrass, Large [3, 13]: 0
Plant response rating, Crabgrass, Large [3, 18]: 30
Plant response rating, Morningglory [4, 11]: 0
Plant response rating, Morningglory [4, 17]: 60
Plant response rating, Morningglory [4, 18]: 30
Plant response rating, Pigweed [5, 11]: 70
Plant response rating, Pigweed [5, 17]: 80
Plant response rating, Pigweed [5, 13]: 0
Plant response rating, Pigweed [5, 18]: 60
Plant response rating, Velvetleaf [6, 11]: 100
Plant response rating, Velvetleaf [6, 17]: 100
Plant response rating, Velvetleaf [6, 13]: 70
Plant response rating, Velvetleaf [6, 18]: 70
Plant response rating, Wheat [7, 11]: 0
Plant response rating, Wheat [7, 17]: 0
Plant response rating, Wheat [7, 13]: 0
Plant response rating, Wheat [7, 18]: 0
Plant response rating, Flood, Barnyardgrass [8]: 0
Plant response rating, Barnyardgrass [8, 15]: 0
Plant response rating, Flood, Ducksalad [9]: 0
Plant response rating, Ducksalad [9, 15]: 0
Plant response rating, Flood, Rice (rice (Oryza sativa)): 0
Plant response rating, Rice (rice (Oryza sativa); [15]): 0
Plant response rating, Flood, Sedge, Umbrella [10]: 0
Plant response rating, Sedge, Umbrella [10, 15]: 0

CCCn1c(-c2cc(F)cc(F)c2)ncc(C(=O)C2=C(O)CC(C)(C)CC2=O)c1=O [Compound 224]
Plant response rating, Barnyardgrass [1, 11]: 90
Barnyardgrass plant response rating [1, 12]: 90
Plant response rating, Barnyardgrass [1, 13]: 0
Plant response rating, Barnyardgrass [1, 14]: 90
Plant response rating, Corn (corn (Zea mays); [11]): 10
Corn plant response rating (corn (Zea mays); [12]): 50
Plant response rating, Corn (corn (Zea mays); [13]): 20
Plant response rating, Corn (corn (Zea mays); [14]): 20
Plant response rating, Foxtail, Giant [2, 11]: 70
Foxtail, Giant plant response rating [2, 12]: 100
Plant response rating, Foxtail, Giant [2, 13]: 20
Plant response rating, Foxtail, Giant [2, 14]: 70
Plant response rating, Crabgrass, Large [3, 11]: 70
Crabgrass, Large plant response rating [3, 12]: 100
Plant response rating, Crabgrass, Large [3, 13]: 70
Plant response rating, Crabgrass, Large [3, 14]: 100
Plant response rating, Morningglory [4, 11]: 100
Morningglory plant response rating [4, 12]: 100
Plant response rating, Morningglory [4, 14]: 30
Plant response rating, Pigweed [5, 11]: 100
Pigweed plant response rating [5, 12]: 100
Plant response rating, Pigweed [5, 13]: 70
Plant response rating, Pigweed [5, 14]: 100
Plant response rating, Velvetleaf [6, 11]: 100
Velvetleaf plant response rating [6, 12]: 100
Plant response rating, Velvetleaf [6, 13]: 50
Plant response rating, Velvetleaf [6, 14]: 80
Plant response rating, Wheat [7, 11]: 0
Wheat plant response rating [7, 12]: 60
Plant response rating, Wheat [7, 13]: 0
Plant response rating, Wheat [7, 14]: 30
Plant response rating, Flood, Barnyardgrass [8]: 30
Plant response rating, Barnyardgrass [8, 15]: 0
Plant response rating, Barnyardgrass [8, 16]: 0
Barnyardgrass plant response rating [8]: 0
Plant response rating, Flood, Ducksalad [9]: 75
Plant response rating, Ducksalad [9, 15]: 0
Plant response rating, Ducksalad [9, 16]: 0
Ducksalad plant response rating [9]: 0
Plant response rating, Flood, Rice (rice (Oryza sativa)): 60
Plant response rating, Rice (rice (Oryza sativa); [15]): 0
Plant response rating, Rice (rice (Oryza sativa); [16]): 0
Rice plant response rating (rice (Oryza sativa)): 0
Plant response rating, Flood, Sedge, Umbrella [10]: 75
Plant response rating, Sedge, Umbrella [10, 15]: 0
Plant response rating, Sedge, Umbrella [10, 16]: 0
Sedge, Umbrella plant response rating [10]: 0

Cc1c(F)cccc1-n1c(-c2ccccc2)ncc(C(=O)C2=C(O)C3CCC(C3)C2=O)c1=O (centres unmarked) [Compound 234]
Plant response rating, Barnyardgrass [1, 11]: 80
Barnyardgrass plant response rating [1, 12]: 100
Plant response rating, Barnyardgrass [1, 13]: 0
Plant response rating, Barnyardgrass [1, 14]: 80
Plant response rating, Corn (corn (Zea mays); [11]): 20
Corn plant response rating (corn (Zea mays); [12]): 50
Plant response rating, Corn (corn (Zea mays); [13]): 0
Plant response rating, Corn (corn (Zea mays); [14]): 20
Plant response rating, Foxtail, Giant [2, 11]: 70
Foxtail, Giant plant response rating [2, 12]: 90
Plant response rating, Foxtail, Giant [2, 13]: 10
Plant response rating, Foxtail, Giant [2, 14]: 60
Plant response rating, Crabgrass, Large [3, 11]: 40
Crabgrass, Large plant response rating [3, 12]: 90
Plant response rating, Crabgrass, Large [3, 13]: 60
Plant response rating, Crabgrass, Large [3, 14]: 90
Plant response rating, Morningglory [4, 11]: 100
Morningglory plant response rating [4, 12]: 100
Plant response rating, Morningglory [4, 14]: 10
Plant response rating, Pigweed [5, 11]: 70
Pigweed plant response rating [5, 12]: 90
Plant response rating, Pigweed [5, 13]: 50
Plant response rating, Pigweed [5, 14]: 60
Plant response rating, Velvetleaf [6, 11]: 100
Velvetleaf plant response rating [6, 12]: 100
Plant response rating, Velvetleaf [6, 13]: 30
Plant response rating, Velvetleaf [6, 14]: 90
Plant response rating, Wheat [7, 11]: 0
Wheat plant response rating [7, 12]: 20
Plant response rating, Wheat [7, 13]: 0
Plant response rating, Wheat [7, 14]: 20
Plant response rating, Flood, Barnyardgrass [8]: 0
Plant response rating, Barnyardgrass [8, 15]: 0
Plant response rating, Flood, Ducksalad [9]: 70
Plant response rating, Ducksalad [9, 15]: 20
Plant response rating, Flood, Rice (rice (Oryza sativa)): 0
Plant response rating, Rice (rice (Oryza sativa); [15]): 0
Plant response rating, Flood, Sedge, Umbrella [10]: 40
Plant response rating, Sedge, Umbrella [10, 15]: 0
